Test results from patent US8097774B2, “Cytochrome P450 genes conferring herbicide resistance” (Syngenta Participations AG, priority 2007, dated 2012).
Read-outs that look alike come from different tables or passages of the source.

Key:
corn plants = assay: Mesotrione levels in treated corn plants; type: in vivo; details: over time; P450 based degradation mechanism
[1] = system: Negative T0 transformants (negative by Taqman for presence of transgenes); assay: Mesotrione spray on soybean T0 plants, chlorosis rating; type: in vivo, Soybean (Glycine max); details: 52.5 g/ha mesotrione, 22 days after the spray
Description: (§1) T0 plants were taken from tissue culture to the greenhouse where they are transplanted into saturated soil (Redi-Earth® Plug and Seedling Mix, Sun Gro Horticulture, Bellevue, Wash.) mixed with 1% granular Marathon® (Olympic Horticultural Products, Co., Mainland, Pa.) at 5-10 g/gal Redi-Earth® Mix in 2″ square pots. The plants were covered with humidity domes and placed in a Conviron chamber (Pembina, N. Dak.) with the following environmental conditions: 24° C. day; 18° C. night; 23 hr photoperiod; 80% relative humidity.
(§2) After plants became established in the soil and new growth appeared (˜1-2 weeks), plants were sampled and tested for the presence of desired transgene by Taqman® analysis using probes for P450 (CYP72A1), or promoters (prCMP and prUBq3). All positive plants and several negative plants were transplanted into 4″ square pots containing MetroMix® 380 soil (Sun Gro Horticulture, Bellevue, Wash.). Sierra 17-6-12 slow release fertilizer was incorporated into the soil at the recommended rate. The negative plants serve as controls for the spray experiment. The plants were then relocated into a standard greenhouse to acclimatize (˜1 week). The environmental conditions were: 27° C. day; 21° C. night; 12 hr photoperiod (with ambient light); ambient humidity. After acclimatizing (˜1 week), the plants were ready to be sprayed with the desired herbicides.
The plants from Example 6 were sprayed with mesotrione to determine if they were tolerant to this herbicide. Callisto® (active ingredient mesotrione, Syngenta Crop Protection, Inc., Greensboro, N.C.) was mixed in water and X-77 surfactant (0.25% v/v final concentration). Plants were placed in a DeVries spray chamber (DeVries Manufacturing, Hollandale, Minn.), and the distance from the nozzle to the top of the plants was adjusted to approximately 12 inches. The system was set up so that the boom moved at 2 mph, and delivered 25 gallon fluid per acre. The spray rate was calibrated to spray 52.5 g/ha mesotrione over the top of the plants. Negative T0 transformants (i.e., negative by Taqman® for presence of transgenes), T0 transformants with vector 17107, and one transformant with vector 17108 (event 17108-A), were sprayed in this manner. After spraying, plants were placed in the greenhouse, under the same conditions as described in Example 3 above, and evaluated frequently for symptoms. […] However, over time, leaves greened up on all plants. New growth developed as partially bleached, or chlorotic, and the leaves that initially were bleached also greened up. […] At 22 days after the spray, the plants were rated for symptoms on the leaves that were initially bleached. […]

[2] = system: transformant with vector 17108 (event 17108-A, nsf P450 gene); assay: as above; type: in vivo, Soybean (Glycine max); details: 52.5 g/ha mesotrione
From the text: A similar binary vector (17108) was constructed with the corn cytochrome P450 gene ‘nsf’ instead of the CYP72A1 gene (FIG. 4). The nsf gene in this vector was codon optimized for soybean expression (SEQ ID NO:2) based upon the predicted amino acid sequence of the maize gene coding region (SEQ ID NO:1).
as §1, §2
The plants from Example 6 were sprayed with mesotrione to determine if they were tolerant to this herbicide. Callisto® (active ingredient mesotrione, Syngenta Crop Protection, Inc., Greensboro, N.C.) was mixed in water and X-77 surfactant (0.25% v/v final concentration). Plants were placed in a DeVries spray chamber (DeVries Manufacturing, Hollandale, Minn.), and the distance from the nozzle to the top of the plants was adjusted to approximately 12 inches. The system was set up so that the boom moved at 2 mph, and delivered 25 gallon fluid per acre. The spray rate was calibrated to spray 52.5 g/ha mesotrione over the top of the plants. Negative T0 transformants (i.e., negative by Taqman® for presence of transgenes), T0 transformants with vector 17107, and one transformant with vector 17108 (event 17108-A), were sprayed in this manner. After spraying, plants were placed in the greenhouse, under the same conditions as described in Example 3 above, and evaluated frequently for symptoms. […] However, over time, leaves greened up on all plants. […]

[3] = system: untransformed explants (wild-type tobacco); assay: Tobacco explants on MS agar containing mesotrione; type: in vivo; details: 0.02 ppm mesotrione in MS agar (+3% sucrose); no recovery following prolonged exposure
From the text: (§3) To determine tolerance of P450 transgenic explants (i.e. a leaf plus short segment of stem containing the auxiliary bud), these are placed into MS agar (+3% sucrose) containing various concentrations of mesotrione, from 0.02 to 2 ppm. […] In these particular experiments, only the shoot that develops from the bud is bleached, the leaf on the explanted tissue remains green.

[4] = system: All plants that were sprayed (negative T0 transformants, vector 17107, event 17108-A); assay: Mesotrione spray on soybean T0 plants, early symptoms on all sprayed plants; type: in vivo, Soybean (Glycine max); details: 52.5 g/ha mesotrione over the top
Description: as §1
as §2, with “The negative plants serve as controls for the spray experiment. The plants were then relocated into a standard greenhouse to acclimatize (˜1 week). The environmental conditions were: 27° C. day; 21° C. night; 12 hr photoperiod (with ambient light); ambient humidity.” left out
The plants from Example 6 were sprayed with mesotrione to determine if they were tolerant to this herbicide. […] After spraying, plants were placed in the greenhouse, under the same conditions as described in Example 3 above, and evaluated frequently for symptoms. […]

[5] = system: P450 transgenic explants (transgene PCR+ve transformed plants); assay: Tobacco explants on MS agar containing mesotrione; type: in vivo
From the text: Plant transformation vectors with the appropriate P450 gene expression cassette are used to transform Agrobacterium tumefaciens LBA4404. Tobacco tissue is subjected to Agrobacterium-mediated transformation using methods well described in the art. Transformed shoots are regenerated from callus resistant to the selection agent (e.g., glufosinate, butafenacil, kanamycin). Shoots are rooted on MS agar containing the selection agent.
as §3
They root normally and are phenotypically indistinguishable from untransformed plants. A sub-set of the transformants is tolerant to concentrations of >0.1 ppm yielding plants looking normal and rooting well in the presence of herbicide. Some of the transformed plants can be initially bleached when subjected to the herbicide at the said higher concentrations, but on prolonged exposure they progressively “green up” and “recover”. […]

[6] = system: T0 transformants with vector 17107 (corn CYP72A1 cytochrome P450 gene); assay: Mesotrione spray on soybean T0 plants, chlorosis rating; type: in vivo, Soybean (Glycine max); details: 17107 positive, 52.5 g/ha mesotrione, 22 days after the spray
From the text: A binary vector (17107) for dicot (soybean) transformation was constructed, with the Arabidopsis UBQ3 promoter driving the corn CYP72A1 cytochrome P450 gene, followed by NOS terminator (FIG. 3). The gene was codon optimized for soybean expression based upon the predicted amino acid sequence of the maize gene coding region. The amino acid sequence of the protein encoded by the CYP72A1 gene is provided in SEQ ID NO:3, and the nucleotide sequence of the optimized CYP72A1 gene in this binary transformation vector is provided in SEQ ID NO:4. The transformation vector also contains two PAT gene cassettes (one with the 35S promoter and one with the CMP promoter, and both PAT genes are followed by the nos terminator) for glufosinate based selection during the transformation process.
as §1, §2
The plants from Example 6 were sprayed with mesotrione to determine if they were tolerant to this herbicide. Callisto® (active ingredient mesotrione, Syngenta Crop Protection, Inc., Greensboro, N.C.) was mixed in water and X-77 surfactant (0.25% v/v final concentration). Plants were placed in a DeVries spray chamber (DeVries Manufacturing, Hollandale, Minn.), and the distance from the nozzle to the top of the plants was adjusted to approximately 12 inches. The system was set up so that the boom moved at 2 mph, and delivered 25 gallon fluid per acre. The spray rate was calibrated to spray 52.5 g/ha mesotrione over the top of the plants. Negative T0 transformants (i.e., negative by Taqman® for presence of transgenes), T0 transformants with vector 17107, and one transformant with vector 17108 (event 17108-A), were sprayed in this manner. After spraying, plants were placed in the greenhouse, under the same conditions as described in Example 3 above, and evaluated frequently for symptoms. […] However, over time, leaves greened up on all plants. New growth developed as partially bleached, or chlorotic, and the leaves that initially were bleached also greened up. […] At 22 days after the spray, the plants were rated for symptoms on the leaves that were initially bleached. Visible chlorosis was only seen on the leaves immediately above the leaves that were exposed during the spray (i.e., the leaves that had necrotic spots), and in some events, on leaves in sideshoots. The partial chlorosis was evident as light green patches, and often as light green (almost yellow) edges on the leaves.

[7] = system: Transgenic progeny plants (T1 or later generations) containing the nsf transgene (vector 17108); assay: T1 seed from 17108 events, spray with other HPPD herbicides; details: sprayed at 40-80 g/ha rates or higher; evaluated for bleaching and chlorosis
Description: T0 transformants containing the nsf transgene (vector 17108) are allowed to set T1 seed, and the seed is harvested. This seed is planted, and the progeny analyzed to identify seedlots that are derived from germline transformed plants. Transgenic progeny plants (T1 or later generations), are analyzed to confirm mesotrione tolerance. […] Plants are evaluated for bleaching, and chlorosis, as described in Example 7.

rice CYP81A6 enzyme = details: Pan et al. (2007); cited from earlier work
corn CYP72A1 enzyme = details: U.S. Pat. No. 6,380,465, cited from earlier work
[8] = system: CYP76B1 gene in tobacco (Nicotiana tabacum) and Arabidopsis; details: cited from earlier work
[9] = event 17108-A, 17108 positive, 22 days after the spray
[10] = heterologous expression of CYP76B1, Didierjean et al. (2002)

CS(=O)(=O)c1ccc(C(=O)C2C(=O)CCCC2=O)c([N+](=O)[O-])c1 [mesotrione]
mesotrione levels in treated corn plants (corn plants): decrease over time | Number of leaves with <50% chlorisis ([1]; event 6D032-A #4, Negative): 1 | Number of leaves with ≧50% chlorosis ([1]; event 6D032-A #4, Negative): 1 | Number of leaves with <50% chlorisis ([1]; event 6D032-A #14, Negative): 0 | Number of leaves with ≧50% chlorosis ([1]; event 6D032-A #14, Negative): 2 | recovery from the mesotrione injury ([2]; event 17108-A only): fully recover | Number of leaves with <50% chlorisis [2, 9]: 0 | Number of leaves with ≧50% chlorosis [2, 9]: 0 | greening of bleached leaves compared with events with vector 17107 ([2]; event 17108-A, 1 week after spray): turned green faster | bleaching of explants [3]: fully bleached | symptoms on leaves exposed at the time of herbicide application [4]: developed necrotic symptoms on small portions of the leaves | bleaching of new growth that emerged from the plants ([4]; leaves greened up over time): completely bleached | bleaching at the level which causes symptoms on wild-type tobacco ([5]; a number of the transgene PCR+ve transformed plants): no indication of bleaching | concentration tolerated, plants looking normal and rooting well ([5]; a sub-set of the transformants, mesotrione in MS agar): > 0.1 ppm | Number of leaves with <50% chlorisis ([6]; event 17107-A): 0 | Number of leaves with ≧50% chlorosis ([6]; event 17107-A): 2 | Number of leaves with <50% chlorisis ([6]; event 17107-B): 2 | Number of leaves with ≧50% chlorosis ([6]; event 17107-B): 2 | Number of leaves with <50% chlorisis ([6]; event 17107-C): 1 | Number of leaves with ≧50% chlorosis ([6]; event 17107-C): 1 | Number of leaves with <50% chlorisis ([6]; event 17107-D): 2 | Number of leaves with ≧50% chlorosis ([6]; event 17107-D): 3 | Number of leaves with <50% chlorisis ([6]; event 17107-E): 1 | Number of leaves with ≧50% chlorosis ([6]; event 17107-E): 2 | Number of leaves with <50% chlorisis ([6]; event 17107-F): 2 | Number of leaves with ≧50% chlorosis ([6]; event 17107-F): 1 | Number of leaves with <50% chlorisis ([6]; event 17107-G): 2 | Number of leaves with ≧50% chlorosis ([6]; event 17107-G): 1 | Number of leaves with <50% chlorisis ([6]; event 17107-H): 4 | Number of leaves with ≧50% chlorosis ([6]; event 17107-H): 2 | Number of leaves with <50% chlorisis ([6]; event 17107-I): 1 | Number of leaves with ≧50% chlorosis ([6]; event 17107-I): 1

CS(=O)(=O)c1ccc(C(=O)C2=C(Sc3ccccc3)C3CCC(C3)C2=O)c(Cl)c1 (stereo not shown) [Benzobicyclon]
tolerance when sprayed [7]: display tolerance

CC(C)N1C(=O)c2ccccc2NS1(=O)=O [bentazon]
ability of the enzyme to degrade the herbicide (rice CYP81A6 enzyme): able to degrade | ability of the enzyme to degrade the herbicide (corn CYP72A1 enzyme): degrade

CON(C)C(=O)Nc1ccc(Cl)c(Cl)c1 [linuron]
level of tolerance [8, 10]: 20 fold

COc1cc(Cl)nc(NC(=O)NS(=O)(=O)c2ccccc2C(=O)O)n1 [chlorimuron]
ability of the enzyme to degrade the herbicide (corn CYP72A1 enzyme): degrade

Cc1ccc(NC(=O)N(C)C)cc1Cl [chlortoluron]
increase in tolerance [8, 10]: 10 fold | ability of the enzyme to degrade the herbicide (corn CYP72A1 enzyme): degrade

Cc1ccc(C(=O)COc2c(C(=O)c3ccc(Cl)c(C)c3Cl)c(C)nn2C)cc1 [Benzofenap]
tolerance when sprayed [7]: display tolerance

CCOC(=O)CC(SP(=S)(OC)OC)C(=O)OCC (stereo not shown) [malathion]
ability of these plants to degrade the insecticide (corn CYP72A1 enzyme; plants): able to degrade

CS(=O)(=O)c1cc(Cl)ccc1C(=O)c1cnoc1C1CC1 [Isoxachlortole]
tolerance when sprayed [7]: display tolerance

Cc1c(C(=O)c2cnn(C)c2O)ccc(S(C)(=O)=O)c1C1=NOCC1 [Topramezone]
tolerance when sprayed [7]: display tolerance

Cc1nn(C)c(O)c1C(=O)c1ccc(C(F)(F)F)cc1S(C)(=O)=O [Pyrasulfatole]
tolerance when sprayed [7]: display tolerance

CS(=O)(=O)c1ccc(C(=O)C2C(=O)CCCC2=O)c(Cl)c1 [Sulcotrione]
tolerance when sprayed [7]: display tolerance

CC(C)c1ccc(NC(=O)N(C)C)cc1 [isoproturon]
increase in tolerance ([8]; in vivo): 10 fold
